Measurements taken from paper PMC6940745 (International Journal of Molecular Sciences, 2019).
Where a SMILES comes first, the peptide text is derived from it. [ ]: non-standard residue; d: D form. The star is where a group is joined. Gly(N(CH2)2(3-indolyl)) = O=C(O)CNCCc1c[nH]c2ccccc12; 2Nal = N[C@@H](Cc1ccc2ccccc2c1)C(=O)O; d2Nal = N[C@H](Cc1ccc2ccccc2c1)C(=O)O; Dab = NCC[C@H](N)C(=O)O; Bz = O=C(c1ccccc1)*; NPr2 = CCCN(CCC)*

Assays:
[1] = system: human abdominal skin ex vivo; experiment: Stimulation of pigmentation in human abdominal skin ex vivo (Fontana-Masson melanin quantification); format: cell-based; conditions: 200 µM peptide, topical, six days
Method: Following declaration of Helsinki principles (DoH-Oct2013, World Medical Association, Ferney-Voltaire, France), human skin samples were obtained from elective plastic surgery after informed consent was obtained. For the two experiments shown in Figure 2, Figure 3 and Figure 4, we had one person with an individual topology angle (ITA°) of 18, and one person with an ITA° of 39 [69]. The skin samples were cut in pieces of 8 × 3 mm and cultured up to day 6. Skin samples were cultured in an air–liquid interface in a perforated ring of stainless steel in contact with culture medium (modified Williams’ E medium). The culture medium was renewed every three days (i.e., day 0–3). Compounds were added daily in DMSO at 4 µL volume. At day 6, the skin samples were fixed in formalin, embedded in paraplast, and cut at the microtome for histochemical staining and consequent image analysis. Six skin biopsies were used for each single treatment.
Two skin biopsies for each treatment were weighed and, in each case, reduced in the dermal portion, in order to have approximately the same weight for all of them. Samples were then washed and processed with methylthiazolyldiphenyl-tetrazolium bromide (MTT). The color intensity, that is directly proportional to skin vitality, was measured with a plate reader at a wavelength of 570 nm. For melanin quantification, skin sections were stained with a modified Fontana-Masson stain that dyes melanin argentaffin granules in black/dark grey. The amount of melanin present in each slide was evaluated by estimating grey intensity and distribution within the sections using ImageJ application (NIH-USA). Two slides of each skin sample were processed by image acquisition and related analysis (i.e., 12 images for each treatment).
Figure 2 Stimulation of pigmentation by MC1R-agonist peptides ex vivo. Melanin was quantified on skin sections using ImageJ software (NIH, USA). Human abdominal skin was topically treated with peptides at various concentrations for six days. * p < 0.05 vs vehicle by unpaired Student’s t-test. […]

[2] = target: T1, human recombinant MC1 receptor (Homo sapiens, UniProt Q01726); experiment: MC1R activation, cAMP HTRF assay in CHO-K1 cells; format: cell-based
T1 construct: host or cells: CHO-K1
Method: MCR-activation assays were performed by means of a cAMP HTRF (homogeneous time resolved fluorescence) assay for Gs-coupled receptors (cAMP Gs dynamic kit, Cisbio bioassays, 62AM4PEC). CHO-K1 cells expressing human recombinant MC1 receptor (EuroscreenFast, Gosselies, Belgium) (or MC2R, MC3R, MC4R, MC5R) were grown prior to the test in media without antibiotic. They were detached by gentle flushing with PBS-EDTA (5 mM EDTA), recovered by centrifugation, and resuspended in assay buffer (5 mM KCl, 1.25 mM MgSO4, 124 mM NaCl, 25 mM HEPES, 13.3 mM Glucose, 1.25 mM KH2PO4, 1.45 mM CaCl2, 0.5 g/L BSA, supplemented with 1 mM IBMX). Dose response curves were performed in parallel with the reference compounds. For agonist test (96-well), 12 µL of cells were mixed with 12 µL of the test compound diluted at increasing concentrations in assay buffer, and then incubated for 30 min at room temperature. After addition of the lysis buffer and 1 h incubation, fluorescence signal was measured, according to the manufacturer’s specifications, with the homogeneous time resolved fluorescence (HTRF) kit.

[3] = system: B16 murine melanoma cells; experiment: Total melanin synthesis in mouse melanoma cells; format: cell-based; conditions: 72 h incubation
Method: B16 murine melanoma cells, which are highly responsive towards stimulation with alpha-melanocyte stimulating hormone (alpha-MSH), were grown in Dulbecco’s modified eagle medium (DMEM) with 1 g/L glucose supplemented with 3 g/L glucose, 2 mM L-glutamine, 50 U/mL Penicillin, 50 µg/mL Streptomycin, and 10% fetal calf serum. They were kept at 37 °C in a 5% CO2 atmosphere. Cells were grown for 24 h and then medium was replaced with medium containing the test or reference (NDP-alpha-MSH) compounds. After 72 h, total (intracellular and extracellular) melanin content was determined by absorbance spectroscopy at 405 nm. The results were quantified against a melanin standard curve.
Figure 1 Total melanin synthesis in mouse melanoma cells stimulated with MC1R-agonist peptides. MC1R-agonist peptides were incubated at various concentrations together with the near confluent mouse melanoma cell line B16F10. NDP-alpha-MSH at 100 nM was used as the reference and set to 100% melanin (red line). Error bars represent standard error of the mean of three experiments.

other MCRs = system: other MCRs; parameters: method as in PMID 12591094, PMID 12576087; conditions: MCRs besides MC1R; cited from earlier work

T1 sequence (Q01726 whole entry): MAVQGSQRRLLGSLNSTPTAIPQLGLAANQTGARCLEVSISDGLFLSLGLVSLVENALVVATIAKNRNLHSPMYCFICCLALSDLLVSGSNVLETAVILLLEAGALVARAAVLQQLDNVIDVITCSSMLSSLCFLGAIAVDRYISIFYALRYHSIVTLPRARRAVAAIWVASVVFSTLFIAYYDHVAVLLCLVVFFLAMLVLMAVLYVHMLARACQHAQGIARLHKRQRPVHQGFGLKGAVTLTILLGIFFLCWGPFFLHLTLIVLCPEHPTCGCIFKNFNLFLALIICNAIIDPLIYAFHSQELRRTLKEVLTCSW

N=C(N)NCCC[C@H](NC(=O)[C@@H](Cc1ccccc1)NC(=O)[C@H](Cc1c[nH]cn1)NC(=O)CNC(=O)c1ccccc1)C(=O)N[C@@H](Cc1c[nH]c2ccccc12)C(N)=O [Peptide 1] (Bz-GH[dF]RW-NH2)
Stimulation of pigmentation compared to vehicle-treated control tissue [1]: up to 21%
EC50 [2]: 0.041 nM
Concentration at which maximal melanin synthesis activity comparable to 100 nM NDP-alpha-MSH is reached [3]: around 12.3 nM

N=C(N)NCCC[C@H](NC(=O)[C@@H](Cc1ccccc1)NC(=O)[C@H](Cc1c[nH]cn1)NC(=O)CNC(=O)c1ccccc1)C(=O)N[C@@H](Cc1ccc2ccccc2c1)C(N)=O [Peptide 2] (Bz-GH[dF]R[2Nal]-NH2)
EC50 [2]: 0.11 nM
Concentration at which maximal melanin synthesis activity comparable to 100 nM NDP-alpha-MSH is reached [3]: around 12.3 nM

N=C(N)NCCC[C@H](NC(=O)[C@@H](Cc1ccccc1)NC(=O)[C@H](Cc1c[nH]cn1)NC(=O)CNC(=O)c1ccccc1)C(=O)N[C@H](Cc1ccc2ccccc2c1)C(N)=O [Peptide 3] (Bz-GH[dF]R[d2Nal]-NH2)
EC50 [2]: 0.25 nM
Concentration at which maximal melanin synthesis activity comparable to 100 nM NDP-alpha-MSH is reached [3]: around 12.3 nM

CCCN(CCC)C(=O)[C@H](Cc1c[nH]c2ccccc12)NC(=O)[C@H](CCCNC(=N)N)NC(=O)[C@@H](Cc1ccccc1)NC(=O)[C@H](Cc1c[nH]cn1)NC(=O)CNC(=O)c1ccccc1 [Peptide 5] (Bz-GH[dF]RW-NPr2)
EC50 [2]: 0.88 nM

N=C(N)NCCC[C@H](NC(=O)[C@@H](Cc1ccccc1)NC(=O)[C@H](Cc1c[nH]cn1)NC(=O)CNC(=O)c1ccccc1)C(=O)N[C@H](Cc1ccccc1)C(N)=O [Peptide 6] (Bz-GH[dF]R[dF]-NH2)
EC50 [2]: 1.79 nM
Concentration at which maximal melanin synthesis activity comparable to 100 nM NDP-alpha-MSH is reached [3]: > 111 nM

N=C(N)NCCC[C@H](NC(=O)[C@@H](Cc1ccccc1)NC(=O)[C@H](Cc1c[nH]cn1)NC(=O)CNC(=O)c1ccccc1)C(=O)N(CCc1c[nH]c2ccccc12)CC(N)=O [Peptide 7] (Bz-GH[dF]R[Gly(N(CH2)2(3-indolyl))]-NH2)
Concentration at which maximal melanin synthesis activity comparable to 100 nM NDP-alpha-MSH is reached [3]: > 111 nM

NCC[C@H](NC(=O)[C@@H](Cc1ccccc1)NC(=O)[C@H](Cc1c[nH]cn1)NC(=O)CNC(=O)c1ccccc1)C(=O)N[C@@H](Cc1c[nH]c2ccccc12)C(N)=O [Peptide 8] (Bz-GH[dF][Dab]W-NH2)
EC50 [2]: 7.51 nM
Concentration at which maximal melanin synthesis activity comparable to 100 nM NDP-alpha-MSH is reached [3]: > 111 nM

Ac-Ser-Tyr-Ser-Met-Glu-His-Phe-Arg-Trp- Gly-Lys-Pro-Val-NH2 [alpha-MSH]
Potency among other MCRs (other MCRs): ≤ 5 nM
